US11633481B2, “Surfactants for use in healthcare products” (priority 2019, dated 2023)

Columns and labels:
Type in all cases: physicochemical
[1] = Critical micelle concentration and minimum surface tension by Wilhelmy plate method
Excerpt: These properties may be measured and described by various methods. One method by which surfactants may be described is by the molecule's critical micelle concentration (CMC). CMC may be defined as the concentration of a surfactant at which micelles form, and above which all additional surfactant is incorporated into micelles.
As surfactant concentration increases, surface tension decreases. Once the surface is completely overlaid with surfactant molecules, micelles begin to form. This point represents the CMC, as well as the minimum surface tension. Further addition of surfactant will not further affect the surface tension. CMC may therefore be measured by observing the change in surface tension as a function of surfactant concentration. One such method for measuring this value is the Wilhemy plate method. A Wilhelmy plate is usually a thin iridium-platinum plate attached to a balance by a wire and placed perpendicularly to the air-liquid interface. The balance is used to measure the force exerted on the plate by wetting. This value is then used to calculate the surface tension (γ) according to Equation 1: γ=F/I cos θ Equation 1: wherein I is equal to the wetted perimeter (2w+2d, in which w and d are the […], respectively) and cos θ, the contact angle between the liquid and the plate, is assumed to be 0 in the absence of an extant literature value.
(§1) Nuclear magnetic resonance (NMR) spectroscopy was performed on a Bruker 500 MHz spectrometer. The critical micelle concentration (CMC) was determined by the Wilhelmy plate method at 23° C. with a tensiometer (DCAT 11, DataPhysics Instruments GmbH) equipped with a Pt—Ir plate. Dynamic surface tension was determined with a bubble pressure tensiometer (Krüss BP100, Krüss GmbH), at 23° C. Contact angle was determined with the optical contact angle goniometer (OCA 15 Pro, DataPhysics GmbH) equipped with a digital camera.

[2] = Dynamic surface tension with bubble pressure tensiometer; details: 23° C.
Excerpt: Another parameter used to assess the performance of surfactants is dynamic surface tension. The dynamic surface tension is the value of the surface tension for a particular surface or interface age. In the case of liquids with added surfactants, this can differ from the equilibrium value. Immediately after a surface is produced, the surface tension is equal to that of the pure liquid. As described above, surfactants reduce surface tension; therefore, the surface tension drops until an equilibrium value is reached. The time required for equilibrium to be reached depends on the diffusion rate and the adsorption rate of the surfactant.
One method by which dynamic surface tension is measured relies upon a bubble pressure tensiometer. This device measures the maximum internal pressure of a gas bubble that is formed in a liquid by means of a capillary. The measured value corresponds to the surface tension at a certain surface age, the time from the start of the bubble formation to the occurrence of the pressure maximum. The dependence of surface tension on surface age can be measured by varying the speed at which bubbles are produced.
as §1

[3] = Contact angle (wetting) with optical contact angle goniometer; details: 10× CMC in water
Excerpt: Surface-active compounds may also be assessed by their wetting ability on solid substrates as measured by the contact angle. When a liquid droplet comes in contact with a solid surface in a third medium, such as air, a three-phase line forms among the liquid, the gas and the solid. The angle between the surface tension unit vector, acting at the three-phase line and tangent at the liquid droplet, and the surface is described as the contact angle. The contact angle (also known as wetting angle) is a measure of the wettability of a solid by a liquid. In the case of complete wetting, the liquid is completely spread over the solid and the contact angle is 0°. Wetting properties are typically measured for a given compound at the concentration of 1-100×CMC, however, it is not a property that is concentration-dependent therefore measurements of wetting properties can be measured at concentrations that are higher or lower.
In one method, an optical contact angle goniometer may be used to measure the contact angle. This device uses a digital camera and software to extract the contact angle by analyze the contour shape of a sessile droplet of liquid on a surface.
as §1

[4] = Solubility in water; details: pure water, without hydrotropes or other surfactants
[5] = substrate Polyethylene terephthalate
[6] = chloride counterion, pH=7, 23° C.

Compound | critical micelle concentration (CMC) ([1]; in water, 23° C.) | plateau value of minimum surface tension ([1]; in water, 23° C.) | time to fully saturate a freshly created air-water interface (dynamic surface tension) [2] | contact angle (CA) ([3]; substrate Nylon) [°] | contact angle (CA) [3, 5] [°] | contact angle (CA) ([3]; substrate Polyethylene-HD) [°] | contact angle (CA) ([3]; substrate Polyethylene) [°] | contact angle (CA) ([3]; substrate Polypropylene) [°] | contact angle (CA) ([3]; substrate Teflon) [°] | time to fully saturate the interface (dynamic surface tension) ([2]; freshly created air-water interface) | solubility in water [4] | critical micelle concentration (CMC) [1, 6] | plateau value of minimum surface tension [1, 6]
C[N+](C)(CCCCCC(=O)NCCC[Si](O[Si](C)(C)C)(O[Si](C)(C)C)O[Si](C)(C)C)CCCCS(=O)(=O)[O-] [Surfactant 5, 4-((6-((3-(1,1,1,5,5,5-hexamethyl-3-((trimethylsilyl)oxy)trisiloxan-3-yl)propyl)amino)-6-oxohexyl)dimethylammonio)butane-1-sulfonate] | about 0.39 mmol | about 21 mN/m | one second or less | 0 | 0 | 0 | 0 | 0 | 10.2 |  |  |  | 
C[N+](C)([O-])CCCCCC(=O)NCCC[Si](O[Si](C)(C)C)(O[Si](C)(C)C)O[Si](C)(C)C [Surfactant 4, 6-((3-(1,1,1,5,5,5-hexamethyl-3-((trimethylsilyl)oxy)trisiloxan-3-yl)propyl)amino)-N,N-dimethyl-6-oxohexan-1-amine oxide] | about 0.49 mmol | about 20 mN/m | one second or less | 0 | 0 |  | 0 | 0 | 10.6 |  |  |  | 
C[N+](C)(C)CCCCCC(=O)NCCC[Si](O[Si](C)(C)C)(O[Si](C)(C)C)O[Si](C)(C)C [Surfactant 3, 6-((3-(1,1,1,5,5,5-hexamethyl-3-((trimethylsilyl)oxy)trisiloxan-3-yl)propyl)amino)-N,N,N-trimethyl-6-oxohexan-1-aminium iodide] | about 1.6 mmol | around 20 mN/m |  | 0 | 0 |  | 0 | 0 | 10.5 | less than 500 ms |  |  | 
CN(C)CCCCCC(=O)NCCC[Si](O[Si](C)(C)C)(O[Si](C)(C)C)O[Si](C)(C)C [Surfactant 1, 6-(dimethylamino)-N-(3-(1,1,1,5,5,5-hexamethyl-3-((trimethylsilyl)oxy)trisiloxan-3-yl)propyl)hexanamide] |  |  |  |  |  |  |  |  |  |  | slightly soluble |  | 
CN(C)CCCCCC(=O)NCCC[Si](O[Si](C)(C)C)(O[Si](C)(C)C)O[Si](C)(C)C [Surfactant 2, 6-((3-(1,1,1,5,5,5-hexamethyl-3-((trimethylsilyl)oxy)trisiloxan-3-yl)propyl)amino)-N,N-dimethyl-6-oxohexan-1-aminium chloride] |  |  |  |  |  |  |  |  |  |  |  | about 2 mmol | about 23 mN/m
